Data as given in the NIST ThermoML archive (doi:10.1016/j.jct.2012.03.003).

Test: xn = mol fraction of the nth substance listed
Settings: Liquid, Vibrating tube method

COc1cc2c(cc1O)CC1c3c(cc(O)c(OC)c3-2)CCN1C (stereo not given) [boldine] + CCO
Settings	mass density [kg/m3]
352.81 K, 16000 kPa, x1 = 0.0012	755.72
352.81 K, 16000 kPa, x1 = 0.0136	781.95
352.81 K, 17000 kPa, x1 = 0.0012	756.73
352.81 K, 17000 kPa, x1 = 0.0136	782.94
352.81 K, 18000 kPa, x1 = 0.0012	757.73
352.81 K, 18000 kPa, x1 = 0.0136	783.9
352.81 K, 19000 kPa, x1 = 0.0012	758.72
352.81 K, 19000 kPa, x1 = 0.0136	784.85
352.81 K, 20000 kPa, x1 = 0.0012	759.69
352.81 K, 20000 kPa, x1 = 0.0136	785.8
352.82 K, 1000 kPa, x1 = 0.0267	792.92
352.82 K, 2000 kPa, x1 = 0.0267	794.02
352.82 K, 3000 kPa, x1 = 0.0267	795.11
352.82 K, 4000 kPa, x1 = 0.0267	796.19
352.82 K, 5000 kPa, x1 = 0.0267	797.27
352.82 K, 6000 kPa, x1 = 0.0267	798.34
352.82 K, 7000 kPa, x1 = 0.0267	799.39
352.82 K, 8000 kPa, x1 = 0.0267	800.44
352.82 K, 9000 kPa, x1 = 0.0267	801.49
352.82 K, 10000 kPa, x1 = 0.0267	802.51
352.82 K, 11000 kPa, x1 = 0.0267	803.53
352.82 K, 12000 kPa, x1 = 0.0267	804.54
352.82 K, 13000 kPa, x1 = 0.0267	805.54
352.82 K, 14000 kPa, x1 = 0.0267	806.51
352.82 K, 15000 kPa, x1 = 0.0267	807.49
352.82 K, 16000 kPa, x1 = 0.0267	808.44
352.82 K, 17000 kPa, x1 = 0.0267	809.38
352.82 K, 18000 kPa, x1 = 0.0267	810.32
352.82 K, 19000 kPa, x1 = 0.0267	811.24
352.82 K, 20000 kPa, x1 = 0.0267	812.14
352.88 K, 1000 kPa, x1 = 0.0074	751.94
352.88 K, 2000 kPa, x1 = 0.0074	753.18
352.88 K, 3000 kPa, x1 = 0.0074	754.29
352.88 K, 4000 kPa, x1 = 0.0074	755.45
352.88 K, 5000 kPa, x1 = 0.0074	756.6
352.88 K, 6000 kPa, x1 = 0.0074	757.75
352.88 K, 7000 kPa, x1 = 0.0074	758.88
352.88 K, 8000 kPa, x1 = 0.0074	760.01
352.88 K, 9000 kPa, x1 = 0.0074	761.12
352.88 K, 10000 kPa, x1 = 0.0074	762.21
352.88 K, 11000 kPa, x1 = 0.0074	763.3
352.88 K, 12000 kPa, x1 = 0.0074	764.38
352.88 K, 13000 kPa, x1 = 0.0074	765.43
352.88 K, 14000 kPa, x1 = 0.0074	766.48
352.88 K, 15000 kPa, x1 = 0.0074	767.51
352.88 K, 16000 kPa, x1 = 0.0074	768.53
352.88 K, 17000 kPa, x1 = 0.0074	769.53
352.88 K, 18000 kPa, x1 = 0.0074	770.52
352.88 K, 19000 kPa, x1 = 0.0074	771.48
352.88 K, 20000 kPa, x1 = 0.0074	772.43
362.76 K, 1000 kPa, x1 = 0.0196	770.85
362.76 K, 2000 kPa, x1 = 0.0196	772.05
362.76 K, 3000 kPa, x1 = 0.0196	773.24
362.76 K, 4000 kPa, x1 = 0.0196	774.43
362.76 K, 5000 kPa, x1 = 0.0196	775.6
362.76 K, 6000 kPa, x1 = 0.0196	776.76
362.76 K, 7000 kPa, x1 = 0.0196	777.92
362.76 K, 8000 kPa, x1 = 0.0196	779.06
362.76 K, 9000 kPa, x1 = 0.0196	780.2
362.76 K, 10000 kPa, x1 = 0.0196	781.28
362.76 K, 11000 kPa, x1 = 0.0196	782.39
362.76 K, 12000 kPa, x1 = 0.0196	783.48
362.76 K, 13000 kPa, x1 = 0.0196	784.55
362.76 K, 14000 kPa, x1 = 0.0196	785.61
362.76 K, 15000 kPa, x1 = 0.0196	786.65
362.76 K, 16000 kPa, x1 = 0.0196	787.68
362.76 K, 17000 kPa, x1 = 0.0196	788.71
362.76 K, 18000 kPa, x1 = 0.0196	789.69
362.76 K, 19000 kPa, x1 = 0.0196	790.66
362.76 K, 20000 kPa, x1 = 0.0196	791.63
362.77 K, 1000 kPa, x1 = 0.0136	755.74
362.77 K, 1000 kPa, x1 = 0.0267	783.02
362.77 K, 2000 kPa, x1 = 0.0136	756.99
362.77 K, 2000 kPa, x1 = 0.0267	784.19
362.77 K, 3000 kPa, x1 = 0.0136	758.22
362.77 K, 3000 kPa, x1 = 0.0267	785.37
362.77 K, 4000 kPa, x1 = 0.0136	759.44
362.77 K, 4000 kPa, x1 = 0.0267	786.53
362.77 K, 5000 kPa, x1 = 0.0136	760.66
362.77 K, 5000 kPa, x1 = 0.0267	787.67
362.77 K, 6000 kPa, x1 = 0.0136	761.86
362.77 K, 6000 kPa, x1 = 0.0267	788.81
362.77 K, 7000 kPa, x1 = 0.0136	763.05
362.77 K, 7000 kPa, x1 = 0.0267	789.94
362.77 K, 8000 kPa, x1 = 0.0136	764.22
362.77 K, 8000 kPa, x1 = 0.0267	791.05
362.77 K, 9000 kPa, x1 = 0.0136	765.39
362.77 K, 9000 kPa, x1 = 0.0267	792.16
362.77 K, 10000 kPa, x1 = 0.0136	766.54
362.77 K, 10000 kPa, x1 = 0.0267	793.25
362.77 K, 11000 kPa, x1 = 0.0136	767.67
362.77 K, 11000 kPa, x1 = 0.0267	794.34
362.77 K, 12000 kPa, x1 = 0.0136	768.79
362.77 K, 12000 kPa, x1 = 0.0267	795.38
362.77 K, 13000 kPa, x1 = 0.0136	769.9
362.77 K, 13000 kPa, x1 = 0.0267	796.43
362.77 K, 14000 kPa, x1 = 0.0136	770.98
362.77 K, 14000 kPa, x1 = 0.0267	797.48
362.77 K, 15000 kPa, x1 = 0.0136	772.08
362.77 K, 15000 kPa, x1 = 0.0267	798.5
362.77 K, 16000 kPa, x1 = 0.0136	773.14
362.77 K, 16000 kPa, x1 = 0.0267	799.5
362.77 K, 17000 kPa, x1 = 0.0136	774.19
362.77 K, 17000 kPa, x1 = 0.0267	800.5
362.77 K, 18000 kPa, x1 = 0.0136	775.2
362.77 K, 18000 kPa, x1 = 0.0267	801.48
362.77 K, 19000 kPa, x1 = 0.0136	776.22
362.77 K, 19000 kPa, x1 = 0.0267	802.44
362.77 K, 20000 kPa, x1 = 0.0136	777.21
362.77 K, 20000 kPa, x1 = 0.0267	803.41
362.78 K, 1000 kPa, x1 = 0.0012	728.71
362.78 K, 2000 kPa, x1 = 0.0012	730.01
362.78 K, 3000 kPa, x1 = 0.0012	731.31
362.78 K, 4000 kPa, x1 = 0.0012	732.6
362.78 K, 5000 kPa, x1 = 0.0012	733.87
362.78 K, 6000 kPa, x1 = 0.0012	735.12
362.78 K, 7000 kPa, x1 = 0.0012	736.36
362.78 K, 8000 kPa, x1 = 0.0012	737.59
362.78 K, 9000 kPa, x1 = 0.0012	738.8
362.78 K, 10000 kPa, x1 = 0.0012	739.99
362.78 K, 11000 kPa, x1 = 0.0012	741.18
362.78 K, 12000 kPa, x1 = 0.0012	742.33
362.78 K, 13000 kPa, x1 = 0.0012	743.48
362.78 K, 14000 kPa, x1 = 0.0012	744.62
362.78 K, 15000 kPa, x1 = 0.0012	745.73
362.78 K, 16000 kPa, x1 = 0.0012	746.83
362.78 K, 17000 kPa, x1 = 0.0012	747.9
362.78 K, 18000 kPa, x1 = 0.0012	748.97
362.78 K, 19000 kPa, x1 = 0.0012	750.01
362.78 K, 20000 kPa, x1 = 0.0012	751.05
362.87 K, 1000 kPa, x1 = 0.0074	741.96
362.87 K, 2000 kPa, x1 = 0.0074	743.24
362.87 K, 3000 kPa, x1 = 0.0074	744.5
362.87 K, 4000 kPa, x1 = 0.0074	745.75
362.87 K, 5000 kPa, x1 = 0.0074	746.98
362.87 K, 6000 kPa, x1 = 0.0074	748.21
362.87 K, 7000 kPa, x1 = 0.0074	749.43
362.87 K, 8000 kPa, x1 = 0.0074	750.63
362.87 K, 9000 kPa, x1 = 0.0074	751.81
362.87 K, 10000 kPa, x1 = 0.0074	752.98
362.87 K, 11000 kPa, x1 = 0.0074	754.12
362.87 K, 12000 kPa, x1 = 0.0074	755.27
362.87 K, 13000 kPa, x1 = 0.0074	756.39
362.87 K, 14000 kPa, x1 = 0.0074	757.5
362.87 K, 15000 kPa, x1 = 0.0074	758.59
362.87 K, 16000 kPa, x1 = 0.0074	759.65
362.87 K, 17000 kPa, x1 = 0.0074	760.72
362.87 K, 18000 kPa, x1 = 0.0074	761.76
362.87 K, 19000 kPa, x1 = 0.0074	762.79
362.87 K, 20000 kPa, x1 = 0.0074	763.81
